{"source": "patent US7550599B2", "about": "“Water compatible sterically hindered alkoxyamines and hydroxy substituted alkoxyamines” (Ciba Specialty Chemicals Corporation, priority 2003, dated 2009)", "key": {"[1]": {"assay": "Ink jet media light fastness, yellow, Example 38", "conditions": "100% print density; office fluorescent lighting; total stabilizer 650-700 mg/m2, mixtures 1:1 by weight", "experimental": "(§1) A resin-coated paper impregnated with inorganic adsorbent particles (Konica QP Photoglossy ink jet paper, Konica Corp.) is purchased. On the ink-receiving layer, a 0.8 wt % methanol solution of the instant compounds is applied in an amount to achieve 650-700 mg/m^2. The paper is allowed to dry under ambient temperature and pressure for 24 hours. Separately, test patterns (cyan and yellow) are printed on the treated sheets using a Hewlett Packard DeskJet 970 Cxi printer at 100% print density. The obtained prints are left to dry at ambient temperature and pressure for 24 hours. Color densities and CIEL*a*b coordinates before and after exposure are measured using X-Rite 938 Spectrodensitometer. Exposures are carried out using normal office fluorescent lighting."}, "[2]": {"assay": "Ink jet media light fastness, cyan, Example 38", "conditions": "100% print density; office fluorescent lighting; total stabilizer 650-700 mg/m2, mixtures 1:1 by weight", "experimental": "as §1"}, "[3]": {"assay": "Ink jet media light fastness, cyan, Example 31", "conditions": "100% print density; office fluorescent lighting; 650-700 mg/m2", "experimental": "as §1, with “mg/m^2, unless otherwise stated.” for “mg/m^2.”, “(cyan)” for “(cyan and yellow)”"}, "[4]": {"assay": "Ink jet media light fastness, magenta, Example 32", "conditions": "100% print density, office fluorescent lighting", "experimental": "as §1, with “mg/m^2, unless otherwise stated.” for “mg/m^2.”, “(magenta)” for “(cyan and yellow)”"}, "[5]": {"assay": "Dye fading of shampoo under fluorescent light, Example 49", "conditions": "Clairol Herbal Essences shampoo; fluorescent light aging; loading 0.30 wt %", "experimental": "(§2) The instant compounds are added to a commercial shampoo formulation and are evaluated for their ability to reduce the amount of dye fading when the samples are exposed to fluorescent lighting. The instant compounds (0.36 g) are dissolved in 5 mL of methanol which is then added to 120 g of shampoo (Clairol^R Herbal Essences Shampoo) with agitation. A benzotriazole UV absorber, 2-(2-hydroxy-3-tert-butyl-5-methylphenyl)-2H-benzotriazole-5-sulfonic acid, sodium salt (UVA), is optionally added to the shampoo formulation. The stabilized shampoo formulation is agitated for 15 minutes and put into 20 mL glass scintillation vials. These formulations are weathered under fluorescent light aging at ambient temperature. The CIEL*a*b coordinates before and after exposure are measured using X-Rite 938 Spectrodensitometer. Color change is expressed as Delta E (DE)."}, "[6]": {"assay": "Ink jet media light fastness, magenta, Example 35", "conditions": "50% print density, office fluorescent lighting", "experimental": "as §1, with “mg/m^2, unless otherwise stated.” for “mg/m^2.”, “(magenta)” for “(cyan and yellow)”, “50%” for “100%”"}, "[7]": {"assay": "Ink jet media light fastness, cyan, Example 34", "conditions": "50% print density, office fluorescent lighting", "experimental": "as §1, with “mg/m^2, unless otherwise stated.” for “mg/m^2.”, “(cyan)” for “(cyan and yellow)”, “50%” for “100%”"}, "[8]": {"assay": "Dye fading of mouthwash under fluorescent light, Example 50", "conditions": "Scope Original Mint mouthwash; fluorescent light aging; loading 0.30 wt %", "experimental": "as §2, with “mouthwash” for “shampoo”, “mouthwash (Scope^R Original Mint)” for “shampoo (Clairol^R Herbal Essences Shampoo)”"}, "[9]": {"assay": "Solubility in 50% butyl carbitol / 50% water", "format": "physicochemical", "conditions": "50% butyl carbitol / 50% water by weight; stirred 30 minutes", "experimental": "(§3) The solubility of the instant compounds is evaluated in polar solvent systems. A solution of 50% butyl carbitol by weight and 50% water by weight is prepared. The instant compounds are added to this solution, stirred for 30 minutes, and sampled for analysis. Samples containing bis(1-octyloxy-2,2,6,6-tetramethylpiperidin-4-yl)sebacate and 4-hydroxy-1-(2-hydroxy-2-methylpropoxy)-2,2,6,6-tetramethylpiperidine are filtered to remove any undissolved residue and all samples are analyzed by high pressure liquid chromatography or gas chromatography."}, "[10]": {"assay": "Solubility in 50% butyl cellusolve / 50% water", "format": "physicochemical", "conditions": "50% butyl cellusolve / 50% water by weight; stirred 30 minutes", "experimental": "as §3, with “cellusolve” for “carbitol”, “solution” for “solution,”"}, "[11]": {"assay": "Dye fading of shampoo under fluorescent light, Example 48", "conditions": "Suave shampoo; fluorescent light aging, ambient temperature; loading 0.30 wt %", "experimental": "as §2, with “(Suave^R Natural^R, Fresh Mountain Strawberry)” for “(Clairol^R Herbal Essences Shampoo)”, “formulation at an equivalent concentration.” for “formulation.”"}}}
{"molecule": "Cl.ON(Cc1ccccc1)Cc1ccccc1", "note": "[Compound A, N,N-dibenzylhydroxylamine hydrochloride, reference compound]", "values": [{"measurement": "DE for yellow after 3 months", "setting": "[1]", "result": 5.31}, {"measurement": "DE for cyan after 3 months", "setting": "[2]", "result": 11.96}]}
{"molecule": "CC(C)(O)CON1C(C)(C)CC(N)CC1(C)C", "note": "[Example 7]", "values": [{"measurement": "DE for cyan after 4 weeks", "setting": "[3]", "result": 4.27}, {"measurement": "DE for magenta after 4 weeks", "setting": "[4]; 650-700 mg/m2", "result": 20.78}, {"measurement": "DE for magenta after 4 weeks", "setting": "[4]; (2x) 1300 to 1400 mg/m2", "result": 19.52}, {"measurement": "DE for magenta after 4 weeks", "setting": "[4]; (3x) 1950 to 2100 mg/m2", "result": 12.99}, {"measurement": "DE after 2 weeks", "setting": "[5]", "result": 3.96}, {"measurement": "DE for magenta after 4 weeks", "setting": "[6]; 650-700 mg/m2", "result": 16.62}, {"measurement": "DE for magenta after 4 weeks", "setting": "[6]; (2x) 1300 to 1400 mg/m2", "result": 14.14}, {"measurement": "DE for magenta after 4 weeks", "setting": "[6]; (3x) 1950 to 2100 mg/m2", "result": 8.60}, {"measurement": "DE for cyan after 4 weeks", "setting": "[7]; 650-700 mg/m2", "result": 5.85}, {"measurement": "DE for cyan after 4 weeks", "setting": "[7]; (2x) 1300 to 1400 mg/m2", "result": 4.95}, {"measurement": "DE for cyan after 4 weeks", "setting": "[7]; (3x) 1950 to 2100 mg/m2", "result": 4.34}]}
{"molecule": "CC(C)(O)CON1C(C)(C)CC(OC(=O)C(C)(C)O)CC1(C)C", "note": "[Example 18]", "values": [{"measurement": "DE after 2 weeks", "setting": "[8]", "result": 5.11}]}
{"molecule": "CC(NC1CC(C)(C)N(OCC(C)(C)O)C(C)(C)C1)C(=O)[O-].[K+]", "note": "(stereo not drawn) [Example 5]", "values": [{"measurement": "Solubility (% by weight)", "setting": "[9]", "result": "≧15 % by weight"}, {"measurement": "Solubility (% by weight)", "setting": "[10]", "result": "≧18 % by weight"}, {"measurement": "DE after 2 weeks", "setting": "[5]", "result": 1.55}]}
{"molecule": "CC(=O)NCC(=O)NC1CC(C)(C)N(OCC(C)(C)O)C(C)(C)C1", "note": "[Example 37]", "values": [{"measurement": "DE for yellow after 3 months", "setting": "[1]", "result": 2.96}, {"measurement": "DE for cyan after 3 months", "setting": "[2]", "result": 11.39}]}
{"molecule": "CC(C)(O)CON1C(C)(C)CC(OC(=O)CCC(=O)O)CC1(C)C", "note": "[Example 17]", "values": [{"measurement": "DE after 2 weeks", "setting": "[11]", "result": 8.91}]}
{"molecule": "CN(C)CCNC1CC(C)(C)N(OCC(C)(C)O)C(C)(C)C1", "note": "[Example 6]", "values": [{"measurement": "DE after 2 weeks", "setting": "[11]", "result": 7.53}]}
